{"source": "patent US20070053892A1", "about": "“Methods and kits for co-administration of nutritional supplements” (Everett Laboratories, Inc., priority 2005, published 2007)", "origin": "cited, not measured here", "key": {"[1]": {"settings": "patients with hypertension"}, "[2]": {"settings": "patients with congestive heart failure"}, "[3]": {"settings": "patients with cardiomyopathy"}, "[4]": {"settings": "patients with ischemic heart disease"}}, "data": [{"smiles": "COC1=C(OC)C(=O)C(C/C=C(\\C)CC/C=C(\\C)CC/C=C(\\C)CC/C=C(\\C)CC/C=C(\\C)CC/C=C(\\C)CC/C=C(\\C)CC/C=C(\\C)CC/C=C(\\C)CCC=C(C)C)=C(C)C1=O", "note": "[CoQ10, coenzyme Q10]", "values": [{"measurement": "blood pressure", "setting": "[1]", "value": "significantly reduce blood pressure"}, {"measurement": "myocardial metabolic function, blood pressure, myocardial thickness", "setting": "[2]", "value": "improve myocardial metabolic function, reduce blood pressure, and reduce myocardial thickness"}, {"measurement": "cardiac function including ejection fraction and cardiac output", "setting": "[3]", "value": "significant improvement in cardiac function"}, {"measurement": "magnitude and rate of clinical improvement", "setting": "[4]", "value": "enhances both the magnitude and rate of clinical improvement"}]}]}
